Assay results: patent US10793589B2, “Resorcinarene-based amphipathic compound and use thereof” (Industry-University Cooperation Foundation Hanyang …, priority 2016, dated 2020)
Entries after “also recorded” stand apart in the source; their conditions may differ.

Assays:
[1] = Hydrodynamic radius and size distribution of micelles by dynamic light scattering (DLS); type: physicochemical; conditions: compound 1.0 wt %
Experimental: A method of measuring the radius of a micelle is not particularly limited and may be any method generally known in the art. For example, the radius may be measured by a dynamic light scattering (DLS) experiment.
(§1) Specifically, critical micelle concentrations (CMCs) were measured using a fluorescence dye, diphenylhexatriene (DPH), and hydrodynamic radii (Rh) of micelles formed of each compound (1.0 wt %) were measured by a dynamic light scattering (DLS) experiment. Measured results are shown in Table 1 in comparison with values of DDM as an existing amphipathic molecule (detergent).
Meanwhile, size distributions of the micelles formed by RGAs and RMAs were measured using DLS.

[2] = biological target: T1, uric acid-xanthine/H+ symporter (UapA) (Emericella nidulans, UniProt Q07307, G411V); assay: UapA structural/thermal stability (FSEC, CPM assay); type: biochemical, Aspergillus nidulans; conditions: FIG. 5 (RGAs, FSEC), FIG. 6 (RMAs, CPM assay 40° C. 150 min, CMC+0.04 or CMC+0.2 wt %)
T1 construct: GFP; made in house; host or cells: Saccharomyces cerevisiae FGY217
T1 sequence (Q07307 12-574 G411V): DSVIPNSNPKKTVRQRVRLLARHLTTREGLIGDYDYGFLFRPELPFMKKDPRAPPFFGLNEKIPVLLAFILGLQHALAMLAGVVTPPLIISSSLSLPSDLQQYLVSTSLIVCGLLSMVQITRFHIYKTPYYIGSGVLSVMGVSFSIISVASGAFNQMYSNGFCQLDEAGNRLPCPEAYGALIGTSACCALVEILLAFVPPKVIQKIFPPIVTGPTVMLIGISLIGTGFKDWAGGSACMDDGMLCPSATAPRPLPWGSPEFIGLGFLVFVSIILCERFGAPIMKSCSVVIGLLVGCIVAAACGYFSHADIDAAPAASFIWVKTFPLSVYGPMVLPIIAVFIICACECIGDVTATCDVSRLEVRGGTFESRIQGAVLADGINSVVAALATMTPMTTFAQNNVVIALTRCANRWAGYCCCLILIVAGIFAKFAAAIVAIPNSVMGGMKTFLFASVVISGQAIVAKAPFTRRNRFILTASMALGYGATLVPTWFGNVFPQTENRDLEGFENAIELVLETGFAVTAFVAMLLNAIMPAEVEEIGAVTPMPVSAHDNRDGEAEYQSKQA
Experimental: FIGS. 5A and 5B are a set of graphs illustrating a result of measuring the thermal stability of UapA in an aqueous solution caused by RGAs or DDM via fluorescence-detection size exclusion chromatography (FSEC):
FIGS. 6A and 6B are a set of graph illustrating a result of measuring thermal denaturation profile of UapA protein in DDM and novel RMAs (RMA-Cs and RMA-CEs) used at CMC+0.04 wt % (a) or CMC+0.2 wt % (b). Protein stability was assessed by CPM assay carried out at 40° C. for 150 min.
An experiment was carried out to measure the structural stability of a uric acid-xanthine/H^+ symporter (UapA) isolated from Aspergillus nidulans caused by RGAs and RMAs. The structural stability of UapA was measured using a sulfhydryl-specific fluorophore, N-[4-(7-diethylamino-4-methyl-3-coumarinyl)phenyl] maleimide (CPM).
Specifically, UapAG411V1-11 (hereinafter, referred to as “UapA”) was expressed in combination with GFP in Saccharomyces cerevisiae FGY217 strains and isolated into a sample buffer (20 mM Tris (pH 7.5), 150 mM NaCl, 0.03% DDM, and 0.6 mM xanthine) according to the method described in the paper (Mol. Membr. Biol. 2013, 30, 32-42) written by J. Leung et al. The membranes containing UapA were diluted to a final protein concentration of 2.8 mg ml^−1 in PBS (pH 7.4) supplemented with either 1% DDM or 1% RMAs or RGAs. […]

[3] = biological target: T2, human β2 adrenergic receptor (β2AR) (Homo sapiens, UniProt P07550); assay: β2AR stability, [3H]-dihydroalprenolol (DHA) ligand binding assay; type: biochemical; conditions: for maintaining the ligand binding characteristic of the receptor compared to DDM: 0 hour, CMC+0.2 wt %, [3H]-DHA
T2 construct: made in house
T2 sequence (P07550 whole entry): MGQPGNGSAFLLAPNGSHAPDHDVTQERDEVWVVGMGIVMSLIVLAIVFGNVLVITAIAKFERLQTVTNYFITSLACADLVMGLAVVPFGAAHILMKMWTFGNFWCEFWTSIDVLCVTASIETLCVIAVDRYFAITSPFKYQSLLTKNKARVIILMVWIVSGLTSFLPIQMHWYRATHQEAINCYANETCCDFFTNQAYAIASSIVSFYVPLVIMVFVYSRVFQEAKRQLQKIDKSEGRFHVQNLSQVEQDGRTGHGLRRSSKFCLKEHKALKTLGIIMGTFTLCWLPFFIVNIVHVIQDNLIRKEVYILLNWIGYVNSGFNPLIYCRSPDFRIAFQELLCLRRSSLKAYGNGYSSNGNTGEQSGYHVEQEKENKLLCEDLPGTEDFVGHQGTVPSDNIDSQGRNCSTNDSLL
Experimental: (§2) FIGS. 10A and 10B illustrate a result of measuring the effect of RGAs on the stability of β2AR after (a) 0 hour and (b) over time. Protein-ligand binding characteristics were measured via ligand binding assay using [^3H]-dihydroalprenolol (DHA), and the measurement was carried out by sampling a protein sample at regular intervals during 2 days of storage at room temperature.
as §2, with “12A” for “10A”, “12B” for “10B”, “RMAs” for “RGAs”
An experiment was carried out to measure the structural stability of a human (32 adrenergic receptor (β2AR) and a G protein-coupled receptor (GPCR) caused by RGAs and RMAs. That is, a receptor purified with DDM was diluted with a buffer solution containing only each RGA and RMA without cholesteryl hemisuccinate (CHS) or a buffer solution containing CHS and DDM. The final concentration of the compound was CMC+0.2 wt %, and the ligand binding characteristic of the receptor was measured using [^3H]-dihydroalprenolol ([^3H]-DHA) binding.
Specifically, radioligand binding assay was carried out using the following method. β2AR was purified using 0.1% DDM according to the method described in a paper (Science, 2007, 318, 1266-1273.) written by D. M. Rosenbaum et al. and finally concentrated to about 10 mg/ml (about 200 μM). The β2AR purified with DDM was used to prepare a master binding mixture containing 10 nM [^3H]-dihydroalprenolol (DHA) supplemented with 0.5 mg/ml BSA in a 0.2% amphipathic compound (DDM, RGAs or RMAs). The receptor purified with DDM, RGAs or RMAs was incubated with 10 nM [^3H]-DHA at room temperature for 30 minutes. The mixture was loaded into a G-50 column, the flow-through was collected with 1 ml of a binding buffer (20 mM HEPES pH 7.5, 100 mM NaCl, supplemented with 0.5 mg/ml BSA and 20×CMC individual amphipathic compound, and the G-50 column was further filled with 15 ml of a scintillation fluid. Receptor-bound [^3H]-DHA was measured with a scintillation counter (Beckman). The binding capacity of [^3H]-DHA was measured and shown in a column graph. Each experiment was performed in triplicate.

[4] = Critical micelle concentration by fluorescence dye diphenylhexatriene (DPH); type: physicochemical; conditions: DPH fluorescence
Experimental: A method of measuring the CMC is not particularly limited and may be any method generally known in the art. For example, the CMC may be measured according to a fluorescence staining method using diphenylhexatriene (DPH).
as §1

[5] = biological target: T2, human β2 adrenergic receptor (β2AR); assay: Size exclusion chromatography (SEC) of β2AR receptor-detergent complex; conditions: 20×CMC detergent
Experimental: FIG. 11 illustrates a result of evaluating the size characteristic of a (32AR protein-ligand binding complex formed of RGA-C11, RGA-C13, or DDM via a size exclusion chromatography (SEC) test.
In addition, a size exclusion chromatography (SEC) test was conducted. Specifically, β2AR purified with 0.1% DDM was loaded on a M1 Flag column in the presence of 2 mM CaCl2, and the column was washed with a DDM, RGA-C11 or RGA-C13 detergent buffer (20 mM HEPES pH 7.5, 100 mM NaCl, 0.2% individual amphipathic compound). The receptor was eluted with 20×CMC DDM, RGA-C11, or RGA-C13 with 5 mM EDTA and 0.2 mg/ml free Flag peptide. The eluate was further added to a Superdex-200 10/300 GL column (GE Healthcare) at 0.5 ml/min, and UV absorbance at 280 nm was recorded. The running buffer contained 20 mM HEPES pH 7.5, 100 mM NaCl, 20×CMC individual detergent (DDM, RGA-C11 and RGA-C13).

[6] = biological target: T3, Salmonella typhimurium melibiose permease (MelB) (Salmonella typhimurium, UniProt P30878); assay: MelB extraction and solubility after 90 min incubation, SDS-PAGE and western blotting; type: biochemical; conditions: 55° C., 1.5 wt %
T3 construct: made in house; host or cells: E. coli DW2 (melB and lacZY deleted), plasmid pK95AHB/WT MelBSt/CH10
T3 sequence (P30878 whole entry): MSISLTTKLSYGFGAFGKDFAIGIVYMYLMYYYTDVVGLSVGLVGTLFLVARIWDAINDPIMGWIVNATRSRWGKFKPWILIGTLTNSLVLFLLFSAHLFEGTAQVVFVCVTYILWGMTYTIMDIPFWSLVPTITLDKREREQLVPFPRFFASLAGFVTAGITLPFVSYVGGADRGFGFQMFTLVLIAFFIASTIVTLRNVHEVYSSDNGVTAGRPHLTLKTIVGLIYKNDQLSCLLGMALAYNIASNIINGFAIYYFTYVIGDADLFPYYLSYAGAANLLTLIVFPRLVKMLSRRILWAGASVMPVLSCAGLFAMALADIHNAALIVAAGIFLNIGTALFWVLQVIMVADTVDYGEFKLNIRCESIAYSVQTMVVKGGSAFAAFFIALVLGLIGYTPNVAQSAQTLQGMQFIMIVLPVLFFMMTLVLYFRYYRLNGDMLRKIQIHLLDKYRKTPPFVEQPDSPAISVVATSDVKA
Experimental: FIGS. 9A and 9B illustrate a result of measuring the amount of a MelB protein dissolved in an aqueous solution after a MelB protein was extracted at four temperatures (0, 45, 55, and 65) using RGAs or DDM at a concentration of 1.5 wt % and then incubated at the same temperatures for 90 minutes:
RGAs were selected, and an experiment was carried out to measure the structural stability of a Salmonella typhimurium melibiose permease (MelB) caused by RGAs. A MelB protein was extracted from a membrane using RGAs or DDM, and the amount and structure of the protein thus extracted was then analyzed by performing SDS-PAGE and western blotting. In this case, the concentration of the used amphipathic compound was 1.5 wt %. The protein was extracted at four temperatures (0, 45, 55, and 65° C.) and then incubated at the same temperatures for 90 minutes. Subsequently, two kinds of performance of the compound, that is, protein extraction efficiency and protein stability were evaluated at the same time by measuring the amount of a protein which remained dissolved in an aqueous solution. The amount of a protein which was extracted and stabilized by an individual amphipathic molecule was expressed as a relative value (%) with respect to the amount of the entire protein included in a membrane sample not treated with an amphipathic molecule.
Specifically, a C-terminal 10-His-tagged Salmonella typhimurium melibiose permease (MelBSt) was expressed in E. coli DW2 cells (melB and lacZY) using plasmid pK95AHB/WT MelBSt/CH10. Cells were grown and membranes were prepared according to the method described in a paper (Nat. Commun. 2014, 5, 3009) written by A. S. Ethayathulla et al. A protein assay was carried out with a Micro BCA kit (Thermo Scientific, Rockford, Ill.). RGAs and DDM were evaluated to measure the stability of MelBSt according to the protocol described in a paper (Nat. Methods 2010, 7, 1003-1008) written by P. S. Chae et al. The membrane sample (final protein concentration of 10 mg/mL) containing MelBSt was incubated in a solubilization buffer containing 1.5% (w/v) DDM or RGAs (20 mM sodium phosphate, pH 7.5, 200 mM NaCl, 10% glycerol, and 20 mM melibiose) at four temperatures (0, 45, 55, and 65° C.) for 90 minutes. An insoluble material was removed by ultracentrifugation at 355,590 g at 4° C. for 45 minutes using a Beckman Optima™ MAX ultracentrifuge equipped with a TLA-100 rotor. A dissolved portion was separated by SDS-16% PAGE, and immunoblotting was then performed using a Penta-His-HRP antibody (Qiagen, Germantown, Md.). A membrane fraction containing 20 μg of protein without treatment was used to illustrate the overall MelB, and the treated samples were loaded into each well in equal volume. MelBSt was measured using the SuperSignal West Pico Chemiluminescent substrate by ImageQuant LAS 4000 Biomolecular Imager (GE Healthcare Life Sciences).

SMILES: CCCCCCCC[C@H]1c2cc(c(OCCO[C@@H]3OC(CO)[C@@H](O)[C@H](O)C3O)cc2OCCO[C@@H]2OC(CO)[C@@H](O)[C@H](O)C2O)[C@H](CCCCCCCC)c2cc(c(OCCO[C@@H]3OC(CO)[C@@H](O)[C@H](O)C3O)cc2OCCO[C@@H]2OC(CO)[C@@H](O)[C@H](O)C2O)[C@@H](CCCCCCCC)c2cc(c(OCCO[C@@H]3OC(CO)[C@@H](O)[C@H](O)C3O)cc2OCCO[C@@H]2OC(CO)[C@@H](O)[C@H](O)C2O)[C@@H](CCCCCCCC)c2cc1c(OCCO[C@@H]1OC(CO)[C@@H](O)[C@H](O)C1O)cc2OCCO[C@@H]1OC(CO)[C@@H](O)[C@H](O)C1O (some centres unmarked) [RGA-C9]
- Rh (nm), hydrodynamic radius of micelles [1]: 2.9 ± 0.1 nm
- ability to maintain the UapA protein in a folded state compared to DDM [2]: highest effect
- maintaining the ligand binding characteristic of the receptor compared to DDM [3]: inferior to DDM
- CMC [4]: ~7 µM
- CMC (wt %) [4]: ~0.018 wt %

SMILES: CCCCCCCCCC[C@H]1c2cc(c(OCCO[C@@H]3OC(CO)[C@@H](O)[C@H](O)C3O)cc2OCCO[C@@H]2OC(CO)[C@@H](O)[C@H](O)C2O)[C@H](CCCCCCCCCC)c2cc(c(OCCO[C@@H]3OC(CO)[C@@H](O)[C@H](O)C3O)cc2OCCO[C@@H]2OC(CO)[C@@H](O)[C@H](O)C2O)[C@@H](CCCCCCCCCC)c2cc(c(OCCO[C@@H]3OC(CO)[C@@H](O)[C@H](O)C3O)cc2OCCO[C@@H]2OC(CO)[C@@H](O)[C@H](O)C2O)[C@@H](CCCCCCCCCC)c2cc1c(OCCO[C@@H]1OC(CO)[C@@H](O)[C@H](O)C1O)cc2OCCO[C@@H]1OC(CO)[C@@H](O)[C@H](O)C1O (some centres unmarked) [RGA-C11]
- size of receptor-detergent complex [5]: significantly smaller than that formed of DDM
- Rh (nm), hydrodynamic radius of micelles [1]: 6.8 ± 0.2 nm
- MelB protein extraction efficiency and solubility [6]: maintained MelB solubility better than DDM; also recorded: higher protein extraction efficiency than DDM
- maintaining the ligand binding characteristic of the receptor compared to DDM [3]: superior to DDM
- ability to maintain the ligand binding of the receptor over time compared to DDM ([3]; 2 days at room temperature, early stage (0 to 12 h)): superior ability to maintain the ligand binding of the receptor compared to DDM
- CMC (wt %) [4]: ~0.0081 wt %
